Source: patent publication US10501479B2, “Benzenesulfonyl-asymmetric ureas and medical uses thereof” (HELSINN HEALTHCARE SA, priority 2016, dated 2019)
pEC50, pIC50: −log10 of the molar value. Where two headings read alike, the source gives them in different places.

Tests used:
[1] = target: T1, GHSR-1a (HEK293/GHSR1a cell line) (Homo sapiens, UniProt Q92847); assay: Ghrelin antagonist potency (IC50) with calcium FLIPR assay, ghrelin 10 nM; type: cell-based
T1 construct: expressed in transfected cells; host or cells: HEK293/GHSR1a cell line
How it was run: (§1)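 Cells seeded 24 h before the run were loaded with calcium dye for 30-60 min at room temperature or 37° C. For agonism, compound was added at t=20 sec and the calcium signal followed for 2 minutes. For antagonism, compound plus ghrelin (10 nM) went on at t=20 sec, and IC50 reflected the drop in ghrelin response.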

[2] = Metabolic stability in rat liver microsomes; type: in vitro ADME
Method: (§2) Metabolic Stability Study
(§3) The metabolic stability of compounds in human, dog, rat and mouse liver microsomes was performed according the experimental conditions reported below:
(§4) • a) Prepare the following 5 stock solutions: • 1. Test compound stock solutions: dilute 10 mM solution of dextromethorphan (Dtr) in DMSO, 10 mM solution of diphenhydramine (DPA) in DMSO, 10 mM solution of omeprazole (Ome) in DMSO, 10 mM solution of verapamil (Ver) in DMSO, and 10 mM of an inverse agonist compound in DMSO to 0.25 mM solution each with acetonitrile/water (70/30). • 2. Buffer: 100 mM potassium phosphate Buffer (PBS) at pH 7.4 • 3. Liver microsomes (20 mg/ml): Thaw in 37° C. water bath quickly • 4. 2000 μL: of NADPH regenerating system (1.3 mM). Place this system on ice before use:
(§5) • 5. […] The test compound concentration in the wells, measured by LC-MS/MS, represents the concentration at time=0. • f) To determine the test compound concentration when t≠0, pre-incubate the NADPH regenerating system and the incubation plate containing the remaining 320 μL of incubation mixture (microsomes protein and test compound) for 5 minutes at 37° C. • g) Start the incubation reaction by adding 80 μL NADPH regenerating system to each well containing the remaining 320 μL incubation mixture. • h) After 10 min., 30 min., and 90 min. of incubation at 37° C., transfer 100 μL of the incubation mixture (microsomes protein, test compound, and NADPH) into the wells of a stop plate pre-filled with 300 μL of the cold quench solution. Shake well. • i) Centrifuge the stop plate at 5000×g for 10 minutes. Collect and dilute the supernatant 3 times with distilled water. Sample and analyze the test compound concentration for all the wells by LC-MS/MS. Animal PK Studies via i.v. (intravenous), p.o. (orally) and s.c. (subcutaneous) administrations

[3] = Metabolic stability in mouse liver microsomes; type: in vitro ADME
How it was run: (§6)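 Test compounds were incubated with liver microsomes in 100 mM potassium phosphate buffer, pH 7.4, at 37 °C, with reactions started by an NADPH regenerating system after a 5 min preincubation. Samples taken at 0, 10, 30 and 90 min were quenched cold, centrifuged, and parent remaining was quantified by LC-MS/MS.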

[4] = target: T2, recombinant human ghrelin receptor (HEK293/GRLN) (Homo sapiens, UniProt Q92847); assay: Ghrelin inverse agonist potency (EC50) with IP-1 (IP-One HTRF) assay; type: cell-based; settings: IP-1 assay
T2 construct: expressed in transfected cells
How it was run: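 HEK293/GRLN cells were seeded 18-22 hours before the test, then exposed to compound in stimulation buffer for 1 hour at 37° C, 5% CO2. IP-1 was detected by IP-One HTRF (IP1-d2 plus Tb-cryptate, 1 hour RT), reading 620 and 665 nm; the inverse agonist EC50 was derived from this.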

[5] = Metabolic stability in dog liver microsomes; type: in vitro ADME
Method: as §2, §3, §4, §5

[6] = Metabolic stability in human liver microsomes; type: in vitro ADME
How it was run: as §6

[7] = Animal PK study in mouse via i.v., p.o. and s.c. administration; type: in vivo
How it was run: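 Single i.v. (tail vein), s.c. (neck scruff) or p.o. (gavage) dose to mice or rats; oral vehicle 1–5% DMSO/0.5% methylcellulose, i.v./s.c. vehicle 1–5% DMSO in 20% HP-β-cyclodextrin. Plasma sampled 0.083 (i.v./s.c.) or 0.25 to 24 h, analyzed by LC-MS/MS.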

[8] = target: T1, GHSR-1a (HEK293/GHSR1a cell line); assay: Ghrelin agonist potency (EC50) with calcium FLIPR assay; type: cell-based; settings: HEK293/GHSR1a, read-out: Activity EC50/EMax: EC50 (ghrelin agonist potency)
How it was run: as §1

[9] = Plasma protein binding (PPB), mouse; type: in vitro ADME
[10] = Plasma protein binding (PPB), human; type: in vitro ADME; settings: read-out: PPB (H) (converted)
[11] = ghrelin antagonist potency, read-out: IC50 (Activity)
[12] = inverse agonist potency, read-out: EC50 (Activity)
[13] = HEK293/GHSR1a, ghrelin 10 nM, read-out: Activity IC50 (ghrelin antagonist potency)
[14] = HEK293/GRLN, read-out: Activity EC50 (ghrelin inverse agonist potency)

T2 sequence (Q92847 whole entry): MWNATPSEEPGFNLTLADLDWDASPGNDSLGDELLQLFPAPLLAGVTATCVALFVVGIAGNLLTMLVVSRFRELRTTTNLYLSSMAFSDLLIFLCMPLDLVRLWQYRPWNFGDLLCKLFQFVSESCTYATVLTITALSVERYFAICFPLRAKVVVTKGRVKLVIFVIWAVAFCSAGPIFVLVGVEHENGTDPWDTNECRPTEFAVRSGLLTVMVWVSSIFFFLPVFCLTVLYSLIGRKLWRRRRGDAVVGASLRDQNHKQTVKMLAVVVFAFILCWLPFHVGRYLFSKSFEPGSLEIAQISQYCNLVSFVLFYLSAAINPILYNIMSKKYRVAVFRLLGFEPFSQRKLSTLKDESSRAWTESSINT
T1 sequence (Q92847 whole entry): as above

SMILES	pIC50 [1, 11]	Metabolic Stability Study R = rat [2]	Metabolic Stability Study M = mouse [3]	pEC50 [4, 12]	Metabolic Stability Study D = dog [5]	Metabolic Stability Study H = human [6]	PK F [7] [%]	PK CLiv ([7]; i.v.) [L/h/kg]	PK Vdiv ([7]; i.v.) [L/kg]	PK t1/2iv ([7]; i.v.) [h]	PK CLpo ([7]; p.o.) [L/h/kg]	PK Vdpo ([7]; p.o.) [L/kg]	PK t1/2po ([7]; p.o.) [h]	pEC50 [8]	pIC50 [1, 13]	fraction unbound [9]	pEC50 [4, 14]	fraction unbound [10]
COc1ccc([C@H](C)NC(=O)Nc2ccc(S(=O)(=O)Nc3ccc(CC(C)(C)N)cc3)cc2)c(Cl)c1Cl [H0937, (S)-N-(4-(2-amino-2-methylpropyl)phenyl)-4-(3-(1-(2,3-dichloro-4-methoxyphenyl)ethyl)ureido) benzenesulfonamide]	7.08	H = <10 M = <10 R = <10 D = <10 μL/min/mg	H = <10 M = <10 R = <10 D = <10 μL/min/mg	7.90	H = <10 M = <10 R = <10 D = <10 μL/min/mg	H = <10 M = <10 R = <10 D = <10 μL/min/mg												
C[C@H](NC(=O)Nc1ccc(S(=O)(=O)Nc2ccc(CC(C)(C)N)cc2)cc1)c1cccc(Cl)c1Cl.Cl [H0943, (S)-N-(4-(2-amino-2-methylpropyl)phenyl)-4-(3-(1-(2,3-dichlorophenyl)ethyl)ureido) benzenesulfonamide]	8.11	11.7 µL/min/mg	< 10 µL/min/mg	8.60	< 10 µL/min/mg	10.6 µL/min/mg												
CC(C)(N)Cc1ccc(NS(=O)(=O)c2ccc(NC(=O)NCc3ccccc3)cc2)cc1.Cl [H0993, N-(4-(2-amino-2-methylpropyl)phenyl)-4-(3-benzylureido) benzenesulfonamide]	6.54	15.1 µL/min/mg	14.3 µL/min/mg	7.68	< 10 µL/min/mg	18.5 µL/min/mg	0.4	2.15	4.31	1.39	438.1	2550	4.03					
CN(C)C(C)(C)Cc1ccc(NS(=O)(=O)c2ccc(NC(=O)NCc3cccc(Cl)c3Cl)cc2)cc1 [H0995, 4-(3-(2,3-dichlorobenzyl)ureido)-N-(4-(2-(dimethylamino)-2-methylpropyl)phenyl) benzenesulfonamide]	7.49	92.4 µL/min/mg	194.6 µL/min/mg	8.60	52.7 µL/min/mg	54.5 µL/min/mg												
CC(C)(N)Cc1ccc(CS(=O)(=O)c2ccc(NC(=O)NCc3cccc(Cl)c3Cl)cc2)cc1 [H0996, 1-(4-((4-(2-amino-2-methylpropyl)benzyl)sulfonyl)phenyl)-3-(2,3-dichlorobenzyl)urea]	6.34	77.8 µL/min/mg	125.4 µL/min/mg	7.19	< 10 µL/min/mg	27.5 µL/min/mg												
C[C@@H](NC(=O)Nc1ccc(S(=O)(=O)Cc2ccc3c(c2)CNC3)cc1)c1ccccc1 [H1214, (R)-1-(4-((isoindolin-5-ylmethyl)sulfonyl)phenyl)-3-(1-phenylethyl)urea]	6.56	18 µL/min/mg	21.4 µL/min/mg	6.83	< 10 µL/min/mg	16.6 µL/min/mg												
CC(NC(=O)Nc1ccc(S(=O)(=O)Cc2ccc3c(c2)CNC3)cc1)c1ccccc1Cl.Cl (stereo not drawn) [H1261, 1-(1-(2-chlorophenyl)ethyl)-3-(4-((isoindolin-5-ylmethyl)sulfonyl)phenyl)urea]			23 µL/min/mg			48.8 µL/min/mg								< 4.52	8.80	0.019	8.66	0.045
CC(NC(=O)Nc1ccc(S(=O)(=O)Cc2cc(F)c3c(c2)CCN(C)C3)cc1)c1cccc(Cl)c1Cl (stereo not drawn) [H1378, 1-(1-(2,3-dichlorophenyl)ethyl)-3-(4-(((8-fluoro-2-methyl-1,2,3,4-tetrahydroisoquinolin-6-yl)methyl)sulfonyl)phenyl)urea]			245.9 µL/min/mg		227.9 µL/min/mg	151.7 µL/min/mg								< 4.52	7.72		8.89	
CC(NC(=O)Nc1ccc(S(=O)(=O)Cc2nc3c(s2)CN(C)CC3)cc1)c1cccc(Cl)c1Cl (stereo not drawn) [H1379, 1-(1-(2,3-dichlorophenyl)ethyl)-3-(4-(((5-methyl-4,5,6,7-tetrahydrothiazolo[5,4-c]pyridin-2-yl)methyl)sulfonyl)phenyl)urea]			> 500 µL/min/mg		> 500 µL/min/mg	261.6 µL/min/mg								< 4.52	7.35		8.84	
CC(NC(=O)Nc1ccc(S(=O)(=O)Cc2ccc3c(c2)CC(C)N(C)C3)cc1)c1cccc(Cl)c1Cl (stereo not drawn) [H1380, 1-(1-(2,3-dichlorophenyl)ethyl)-3-(4-(((2,3-dimethyl-1,2,3,4-tetrahydroisoquinolin-6-yl)methyl)sulfonyl)phenyl)urea]			66.5 µL/min/mg		169.9 µL/min/mg	137 µL/min/mg									8.64		9.44	
COc1ccccc1C(C)NC(=O)Nc1ccc(S(=O)(=O)Cc2ccc3c(c2)CNC3)cc1 (stereo not drawn) [H1382, 1-(4-((isoindolin-5-ylmethyl)sulfonyl)phenyl)-3-(1-(2-methoxyphenyl)ethyl)urea]			43.4 µL/min/mg		41.9 µL/min/mg	42.4 µL/min/mg								< 4.52	7.46		8.57	
COc1cc(S(=O)(=O)Cc2ccc3c(c2)CNC3)ccc1NC(=O)NC(C)c1ccccc1.Cl (stereo not drawn) [H1383, 1-(4-((isoindolin-5-ylmethyl)sulfonyl)-2-methoxyphenyl)-3-(1-phenylethyl)urea]		48.2 µL/min/mg	91.9 µL/min/mg		27.8 µL/min/mg	21 µL/min/mg								< 4.52	7.92		8.70	
COc1cc(S(=O)(=O)Cc2ccc3c(c2)CNC3)ccc1NC(=O)NC(C)c1cccc2ccccc12.O=C(O)C(F)(F)F (stereo not drawn) [H1419, 1-(4-((isoindolin-5-ylmethyl)sulfonyl)-2-methoxyphenyl)-3-(1-(naphthalen-1-yl)ethyl)urea]			45.1 µL/min/mg			33.1 µL/min/mg								< 4.52	8.36	0.0031	9.30	0.0041
